Measurements published in article PMC9606955, “In Vitro Activity of Essential Oils Distilled from Colombian Plants against Candida auris and Other Candida Species with Different Antifungal Susceptibility Profiles” (Molecules, 2022).
In brackets after ≈: the same amount, converted by molar mass. Blank lines part the entries; values can stand above or below the compound they belong to.

Key:
Assay in all cases: MIC, CLSI M27 broth microdilution
[1] = system: C. orthopsilosis MUM 17.13; type: cell-based, Candida orthopsilosis; conditions: C. orthopsilosis MUM 17.13, antifungal drugs; for MIC: Lodderomyces orthopsilosis, MUM17.13, geometric mean, read-out: MIC GM
Summary of the method: (§1)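 CLSI M27 (4th ed.) broth microdilution, modified for essential oils and terpenes: yeasts grown on SDA 24 h at 35 °C, inoculum 2.5 × 10^3 CFU/mL in RPMI 1640-MOPS, two-fold dilutions at 0.5–256 µg/mL final. Visual MIC after 24 h at 35 °C; ≥3 runs in duplicate, reported as geometric mean and range.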

C. auris Ca 45 = type: cell-based, Candida auris; conditions: C. auris Ca 45; for MIC Range / MIC: antifungal drugs; for MIC: Candidozyma auris, CA45, geometric mean, read-out: MIC GM
Summary of the method: as §1

C. auris Ca 32 = type: cell-based, Candida auris; conditions: C. auris Ca 32, antifungal drugs; for MIC: Candidozyma auris, CA32, geometric mean, read-out: MIC GM
Summary of the method: as §1

C. auris Ca 41 = type: cell-based, Candida auris; conditions: C. auris Ca 41; for MIC Range / MIC: antifungal drugs; for MIC: Candidozyma auris, CA41, geometric mean, read-out: MIC GM
Summary of the method: as §1

C. auris Ca 1 = type: cell-based, Candida auris; conditions: C. auris Ca 1, antifungal drugs; for MIC: Candidozyma auris, CA1, geometric mean, read-out: MIC GM
Summary of the method: as §1

C. auris Ca 10 = type: cell-based, Candida auris; conditions: antifungal drugs; for MIC: Candidozyma auris, CA10, geometric mean
Summary of the method: as §1

C. auris Ca 17 = type: cell-based, Candida auris; conditions: C. auris Ca 17; for MIC Range / MIC: antifungal drugs; for MIC: Candidozyma auris, CA17, geometric mean, read-out: MIC GM
Summary of the method: as §1

C. auris Ca 9 = type: cell-based, Candida auris; conditions: C. auris Ca 9, antifungal drugs; for MIC: Candidozyma auris, CA9, geometric mean, read-out: MIC GM
Summary of the method: as §1

C. auris Ca 46 = type: cell-based, Candida auris; conditions: C. auris Ca 46; for MIC Range / MIC: antifungal drugs; for MIC: Candidozyma auris, CA46, geometric mean, read-out: MIC GM
Summary of the method: as §1

C. auris CDC B11903 = type: cell-based, Candida auris; conditions: C. auris CDCB11903, antifungal drugs; for MIC: Candidozyma auris, geometric mean, read-out: MIC GM
Summary of the method: as §1

[2] = system: C. tropicalis ATCC 200956; type: cell-based, Candida tropicalis; conditions: C. tropicalis ATCC 200956; for MIC Range / MIC: antifungal drugs; for MIC: Candida tropicalis, ATCC200956, geometric mean, read-out: MIC GM
Summary of the method: as §1

C. tropicalis ATCC 750 = type: cell-based, Candida tropicalis; conditions: antifungal drugs; for MIC: Candida tropicalis, ATCC750, geometric mean
Summary of the method: as §1

[3] = system: C. parapsilosis ATCC 22019; type: cell-based, Candida parapsilosis; conditions: antifungal drugs; for MIC: Lodderomyces parapsilosis, ATCC22019, geometric mean
Summary of the method: as §1

[4] = system: C. parapsilosis Synlab 406; type: cell-based, Candida parapsilosis; conditions: C. parapsilosis Synlab 406; for MIC Range / MIC: antifungal drugs; for MIC: Lodderomyces parapsilosis, SYNLAB406, geometric mean, read-out: MIC GM
Summary of the method: as §1

C. krusei ATCC 6258 = type: cell-based, Candida krusei; conditions: C. krusei ATCC 6258, antifungal drugs; for MIC: Pichia kudriavzevii, ATCC6258, geometric mean, read-out: MIC GM
Summary of the method: as §1

C. glabrata LMDM 34 = type: cell-based, Candida glabrata; conditions: antifungal drugs; for MIC: Nakaseomyces glabratus, LMDM34, geometric mean
Text: (§2) The fungal strains used in this study were C. albicans ATCC 10231, C. albicans ATCC 64550, C. parapsilosis ATCC 22019, C. tropicalis ATCC 750, C. tropicalis ATCC 200956 (resistant to azoles and AMB), C. glabrata LMDM 34 (resistant to echinocandins), C. metapsilosis MUM 15.12, C. orthopsilosis MUM 17.13, C. lusitaniae MUM 17.08, C. krusei ATCC 6258 (Issatchenkia orientalis ATCC 6258), and C. auris CDC B11903. Additionally, nine clinical isolates were included: C. parapsilosis Synlab 406 (FLC-resistant) and eight C. auris isolates identified by MALDI-TOF MS (Bruker Daltonics, Bremen, Germany) according to Zhao et al.. These yeasts were cultured on Sabouraud Dextrose Agar (SDA; Sigma-Aldrich, St. Louis, MO, USA) for 24 h at 35 °C.
(§3) Antifungal susceptibility testing was performed according to Clinical and Laboratory Standards Institute M27, 4th Edition (CLSI standard M27, 4th Edition). Some modifications were applied for evaluation of the antifungal activity of EOs and terpenes. Initially, a screening was carried out to determine the antifungal activity of the EOs and of commercial terpenes. Stock concentrations of EOs and terpenes were prepared at 512 µg/mL and an inoculum of 2.5 × 10^3 CFU/mL of each yeast was prepared in RPMI 1640-MOPS (Sigma- Aldrich St. Louis, MO, USA). Thereafter, 100 µL of each stock solution of EOs or terpenes was dispensed in 96-well microdilution plates (Corning®, Costar®, NY, USA) and 100 µL of each yeast inoculum was added. […] Microdilution plates were incubated at 35 °C and, after 24 h, the presence or absence of growth was visually checked using a manual mirror viewer and then compared with the amount of growth in the control (no EO or terpene). Compounds able to inhibit yeast growth were tested to determine the minimal inhibitory concentration (MIC) as follows: 100 µL of 10 two-fold dilutions of the EOs or commercial terpenes was dispensed in 96-well microplates and the yeast inoculum was added. Final concentrations of the EOs or terpenes ranged from 0.5 µg/mL to 256 µg/mL. Microdilution plates were incubated at 35 °C for 24 h. MICs were visually determined at the lowest concentration that produced visual inhibition compared to the growth control. The assays were performed at least three times in duplicate on different days. The results were expressed as geometric means (GM) and ranges. As an antifungal susceptibility testing control, the activity of ITC and AMB against the reference strains C. krusei ATCC 6258 and C. parapsilosis ATCC 22019 was evaluated in all experiments following the CLSI standard M27, 4th Edition. It was mandatory that the MIC values remained in the accepted range.

C. albicans ATCC 10231 = type: cell-based, Candida albicans; conditions: antifungal drugs; for MIC: Candida albicans, ATCC10231, geometric mean
Text: as §2, §3

C. albicans ATCC 64550 = type: cell-based, Candida albicans; conditions: antifungal drugs; for MIC: Candida albicans, ATCC64550, geometric mean
Text: as §2, §3

C. lusitaniae MUM 17.08 = type: cell-based, Candida lusitaniae; conditions: C. lusitaniae MUM 17.08, antifungal drugs; for MIC: Clavispora lusitaniae, MUM17.08, geometric mean, read-out: MIC GM
Summary of the method: as §1

Compound: OC(Cn1cncn1)(Cn1cncn1)c1ccc(F)cc1F [FLC, fluconazole]
MIC Range [1]: 1 µg/mL (≈ 3.27 µM)
MIC [1]: 1 µg/mL (≈ 3.27 µM)
MIC Range (C. auris Ca 45): 2 µg/mL (≈ 6.53 µM)
MIC (C. auris Ca 45): 2 µg/mL (≈ 6.53 µM)
MIC Range (C. auris Ca 32): 8 to 16 µg/mL
MIC (C. auris Ca 32): 11.3 µg/mL (≈ 36.9 µM)
MIC Range (C. auris Ca 41): 2 µg/mL (≈ 6.53 µM)
MIC (C. auris Ca 41): 2 µg/mL (≈ 6.53 µM)
MIC Range (C. auris Ca 1): 4 µg/mL (≈ 13.1 µM)
MIC (C. auris Ca 1): 4 µg/mL (≈ 13.1 µM)
MIC (C. auris Ca 10): 4 µg/mL (≈ 13.1 µM)
MIC Range (C. auris Ca 10): 4 µg/mL (≈ 13.1 µM)
susceptibility category (C. auris Ca 17; CDC breakpoints): FLC-resistant
MIC Range (C. auris Ca 17): 32 µg/mL (≈ 104 µM)
MIC (C. auris Ca 17): 32 µg/mL (≈ 104 µM)
MIC Range (C. auris Ca 9): 4 µg/mL (≈ 13.1 µM)
MIC (C. auris Ca 9): 4 µg/mL (≈ 13.1 µM)
MIC Range (C. auris Ca 46): 2 to 4 µg/mL
MIC (C. auris Ca 46): 2.8 µg/mL (≈ 9.14 µM)
MIC Range (C. auris CDC B11903): 1 to 2 µg/mL
MIC (C. auris CDC B11903): 1.4 µg/mL (≈ 4.57 µM)
MIC Range [2]: >64 µg/mL
MIC [2]: > 64 µg/mL
MIC (C. tropicalis ATCC 750): 1.4 µg/mL (≈ 4.57 µM)
MIC Range (C. tropicalis ATCC 750): 1 to 2 µg/mL
MIC [3]: 0.7 µg/mL (≈ 2.29 µM)
MIC Range [3]: 0.5 to 1 µg/mL
MIC Range [4]: 8 to 16 µg/mL
susceptibility category ([4]; resistance confirmed): resistance
MIC [4]: 11.3 µg/mL (≈ 36.9 µM)
MIC Range (C. krusei ATCC 6258): 8 µg/mL (≈ 26.1 µM)
MIC (C. krusei ATCC 6258): 8 µg/mL (≈ 26.1 µM)
MIC (C. glabrata LMDM 34): 2.8 µg/mL (≈ 9.14 µM)
MIC Range (C. glabrata LMDM 34): 2 to 4 µg/mL
MIC (C. albicans ATCC 10231): 4 µg/mL (≈ 13.1 µM)
MIC Range (C. albicans ATCC 10231): 4 µg/mL (≈ 13.1 µM)
MIC (C. albicans ATCC 64550): 5.6 µg/mL (≈ 18.3 µM)
MIC Range (C. albicans ATCC 64550): 4 to 8 µg/mL
MIC Range (C. lusitaniae MUM 17.08): 0.5 µg/mL (≈ 1.63 µM)
MIC (C. lusitaniae MUM 17.08): 0.5 µg/mL (≈ 1.63 µM)

MIC Range [1]: <0.03 µg/mL
MIC [1]: < 0.03 µg/mL
MIC Range (C. auris Ca 45): 1 to 2 µg/mL
MIC (C. auris Ca 45): 1.41 µg/mL (≈ 1.53 µM)
MIC Range (C. auris Ca 32): 0.12 to 0.5 µg/mL
MIC (C. auris Ca 32): 0.19 µg/mL (≈ 0.206 µM)
MIC Range (C. auris Ca 41): 1 µg/mL (≈ 1.08 µM)
MIC (C. auris Ca 41): 1 µg/mL (≈ 1.08 µM)
MIC Range (C. auris Ca 1): 0.12 to 0.25 µg/mL
MIC (C. auris Ca 1): 0.2 µg/mL (≈ 0.216 µM)
MIC (C. auris Ca 10): 0.18 µg/mL (≈ 0.195 µM)
MIC Range (C. auris Ca 10): 0.12 to 0.25 µg/mL
MIC Range (C. auris Ca 17): 0.06 to 0.25 µg/mL
MIC (C. auris Ca 17): 0.15 µg/mL (≈ 0.162 µM)
MIC Range (C. auris Ca 9): 0.12 to 0.5 µg/mL
MIC (C. auris Ca 9): 0.25 µg/mL (≈ 0.271 µM)
MIC Range (C. auris Ca 46): 1 to 2 µg/mL
MIC (C. auris Ca 46): 1.4 µg/mL (≈ 1.52 µM)
MIC Range (C. auris CDC B11903): 0.06 to 0.12 µg/mL
MIC (C. auris CDC B11903): 0.07 µg/mL (≈ 0.0758 µM)
MIC Range [2]: 1 to 2 µg/mL
MIC [2]: 1.41 µg/mL (≈ 1.53 µM)
MIC (C. tropicalis ATCC 750): 0.11 µg/mL (≈ 0.119 µM)
MIC Range (C. tropicalis ATCC 750): 0.06 to 0.12 µg/mL
MIC [3]: 0.06 µg/mL (≈ 0.0649 µM)
MIC Range [3]: 0.06 µg/mL (≈ 0.0649 µM)
MIC Range [4]: 0.06 to 0.25 µg/mL
MIC [4]: 0.15 µg/mL (≈ 0.162 µM)
MIC Range (C. krusei ATCC 6258): 0.12 to 0.25 µg/mL
MIC (C. krusei ATCC 6258): 0.15 µg/mL (≈ 0.162 µM)
MIC (C. glabrata LMDM 34): 0.06 µg/mL (≈ 0.0649 µM)
MIC Range (C. glabrata LMDM 34): 0.06 to 0.12 µg/mL
MIC (C. albicans ATCC 10231): 0.04 µg/mL (≈ 0.0433 µM)
MIC Range (C. albicans ATCC 10231): 0.03 to 0.12 µg/mL
MIC (C. albicans ATCC 64550): 0.04 µg/mL (≈ 0.0433 µM)
MIC Range (C. albicans ATCC 64550): 0.03 to 0.12 µg/mL
MIC Range (C. lusitaniae MUM 17.08): 0.03 µg/mL (≈ 0.0325 µM)
MIC (C. lusitaniae MUM 17.08): 0.03 µg/mL (≈ 0.0325 µM)
Compound: C[C@@H]1[C@H](O)[C@@H](C)/C=C/C=C/C=C/C=C/C=C/C=C/C=C/[C@H](O[C@@H]2O[C@H](C)[C@@H](O)[C@H](N)[C@@H]2O)C[C@@H]2O[C@](O)(C[C@@H](O)C[C@@H](O)[C@H](O)CC[C@@H](O)C[C@@H](O)CC(=O)O[C@H]1C)C[C@H](O)[C@H]2C(=O)O [AMB, amphotericin B]
susceptibility category (C. auris Ca 45; CDC breakpoints): AMB-resistant
susceptibility category (C. auris Ca 41; CDC breakpoints): AMB-resistant
susceptibility category (C. auris Ca 46; CDC breakpoints): AMB-resistant
susceptibility category ([2]; resistance confirmed): resistance
